The values below come from publication PMC6138237, “Machine intelligence decrypts β-lapachone as an allosteric 5-lipoxygenase inhibitor” (Chemical Science, 2018).

One series deals with T1, 15-LO-2 (Homo sapiens, UniProt O15296).
T1 sequence (O15296 1-676): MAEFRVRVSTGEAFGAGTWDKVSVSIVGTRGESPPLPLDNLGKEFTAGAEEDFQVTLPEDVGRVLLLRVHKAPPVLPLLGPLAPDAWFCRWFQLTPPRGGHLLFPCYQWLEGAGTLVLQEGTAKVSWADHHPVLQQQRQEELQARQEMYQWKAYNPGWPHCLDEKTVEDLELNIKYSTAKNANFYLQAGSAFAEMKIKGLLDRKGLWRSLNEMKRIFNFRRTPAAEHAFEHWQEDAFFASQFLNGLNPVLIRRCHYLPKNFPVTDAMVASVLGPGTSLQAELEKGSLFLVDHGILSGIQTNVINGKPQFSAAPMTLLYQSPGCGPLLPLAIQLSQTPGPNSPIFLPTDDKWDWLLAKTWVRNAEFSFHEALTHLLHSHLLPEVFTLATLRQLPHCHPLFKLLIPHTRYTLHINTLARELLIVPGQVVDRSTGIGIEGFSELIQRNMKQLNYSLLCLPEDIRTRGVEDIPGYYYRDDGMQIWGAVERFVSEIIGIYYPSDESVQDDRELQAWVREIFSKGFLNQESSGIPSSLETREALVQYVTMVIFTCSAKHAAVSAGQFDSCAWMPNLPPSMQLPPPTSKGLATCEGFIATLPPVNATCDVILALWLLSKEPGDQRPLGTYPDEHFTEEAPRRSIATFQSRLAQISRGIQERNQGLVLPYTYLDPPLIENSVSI
The series can be described thus: 15-LO-2 inhibition assay, Cerep (Method A, fluorometry). The class given is biochemical. The note with it: control.

For a further series, the target named is T2, 5-LO (Homo sapiens, UniProt P09917).
T2 sequence (P09917 1-674): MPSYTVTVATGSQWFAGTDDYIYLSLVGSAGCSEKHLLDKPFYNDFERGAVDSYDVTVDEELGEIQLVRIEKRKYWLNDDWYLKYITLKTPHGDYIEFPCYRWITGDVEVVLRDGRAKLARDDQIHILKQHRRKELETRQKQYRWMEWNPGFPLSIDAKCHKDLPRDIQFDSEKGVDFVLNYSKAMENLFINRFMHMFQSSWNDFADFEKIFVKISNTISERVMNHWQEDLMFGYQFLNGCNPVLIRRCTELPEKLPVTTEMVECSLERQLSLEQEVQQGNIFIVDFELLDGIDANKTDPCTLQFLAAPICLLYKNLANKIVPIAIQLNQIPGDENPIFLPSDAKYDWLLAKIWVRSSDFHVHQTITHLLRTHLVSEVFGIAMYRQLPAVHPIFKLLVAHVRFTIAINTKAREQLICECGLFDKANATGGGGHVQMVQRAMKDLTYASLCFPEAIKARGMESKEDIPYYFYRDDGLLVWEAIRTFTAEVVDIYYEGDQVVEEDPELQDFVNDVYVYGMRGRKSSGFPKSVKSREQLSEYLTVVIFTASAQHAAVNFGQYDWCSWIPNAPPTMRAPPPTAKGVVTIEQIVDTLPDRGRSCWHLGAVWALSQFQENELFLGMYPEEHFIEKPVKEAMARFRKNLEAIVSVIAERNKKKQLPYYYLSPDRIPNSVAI
Put plainly: 5-LO inhibition assay, Cerep (Method A, indirect fluorogenic readout, Rhodamine 123). The class given is biochemical. The note with it: 5-LO.

For series [1], the target named is T3, EP3 (Homo sapiens, UniProt P43115).
T3 sequence (P43115 1-390): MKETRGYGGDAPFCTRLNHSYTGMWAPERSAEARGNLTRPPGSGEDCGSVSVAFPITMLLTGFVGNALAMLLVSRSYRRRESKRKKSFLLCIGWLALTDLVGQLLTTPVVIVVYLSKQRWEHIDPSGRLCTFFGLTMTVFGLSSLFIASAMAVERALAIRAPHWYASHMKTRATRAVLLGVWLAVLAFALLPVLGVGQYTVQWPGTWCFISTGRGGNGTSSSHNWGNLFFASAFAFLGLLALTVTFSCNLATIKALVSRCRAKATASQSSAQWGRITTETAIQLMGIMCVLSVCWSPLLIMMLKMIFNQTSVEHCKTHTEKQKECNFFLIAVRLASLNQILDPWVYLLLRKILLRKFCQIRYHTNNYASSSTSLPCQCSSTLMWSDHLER
Put plainly: EP3 functional antagonist assay, Cerep (sulprostone 0.1 nM, impedance). The note with it: EP3 concentration–inhibition curve; n = 2.

The next series addresses PDE5 (Homo sapiens, UniProt O76074). Put plainly: Phosphodiesterase 5 inhibition assay, Cerep (scintillation counting). The note with it: PDE5; control. The class given is biochemical.
The target in a further series is TRPV1 (Homo sapiens, UniProt Q8NER1). The series can be described thus: TRPV1 functional agonist assay, Cerep (intracellular Ca2+). Format: cell-based.
TRPV1, sequence (Q8NER1 whole entry): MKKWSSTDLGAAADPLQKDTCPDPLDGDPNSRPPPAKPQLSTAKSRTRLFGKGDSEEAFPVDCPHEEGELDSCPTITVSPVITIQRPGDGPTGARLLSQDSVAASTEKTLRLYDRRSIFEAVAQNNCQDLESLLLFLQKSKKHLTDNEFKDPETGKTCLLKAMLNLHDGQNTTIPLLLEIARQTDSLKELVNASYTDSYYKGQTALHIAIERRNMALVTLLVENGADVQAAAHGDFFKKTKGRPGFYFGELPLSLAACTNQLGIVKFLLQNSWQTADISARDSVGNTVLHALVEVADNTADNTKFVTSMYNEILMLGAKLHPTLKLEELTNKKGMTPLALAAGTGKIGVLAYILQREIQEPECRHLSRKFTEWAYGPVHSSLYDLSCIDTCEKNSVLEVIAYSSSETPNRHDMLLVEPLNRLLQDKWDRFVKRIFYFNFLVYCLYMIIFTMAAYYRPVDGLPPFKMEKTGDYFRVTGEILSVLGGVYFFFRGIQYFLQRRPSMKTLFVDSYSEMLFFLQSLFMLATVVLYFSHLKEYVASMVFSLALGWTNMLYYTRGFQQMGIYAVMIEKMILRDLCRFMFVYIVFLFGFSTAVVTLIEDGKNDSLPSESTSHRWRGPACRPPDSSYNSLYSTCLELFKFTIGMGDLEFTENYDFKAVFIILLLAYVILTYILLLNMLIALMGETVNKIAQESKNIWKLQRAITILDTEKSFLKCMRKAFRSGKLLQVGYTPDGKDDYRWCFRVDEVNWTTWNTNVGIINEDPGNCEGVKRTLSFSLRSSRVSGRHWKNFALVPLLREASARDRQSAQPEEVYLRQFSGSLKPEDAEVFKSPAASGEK
In a further series the target is EP4 (Homo sapiens, UniProt P35408). The series can be described thus: EP4 functional agonist assay, Cerep (cAMP, HTRF). (Time-resolved FRET reads energy transfer from a long-lived donor to a nearby acceptor.)
EP4, sequence (P35408 whole entry): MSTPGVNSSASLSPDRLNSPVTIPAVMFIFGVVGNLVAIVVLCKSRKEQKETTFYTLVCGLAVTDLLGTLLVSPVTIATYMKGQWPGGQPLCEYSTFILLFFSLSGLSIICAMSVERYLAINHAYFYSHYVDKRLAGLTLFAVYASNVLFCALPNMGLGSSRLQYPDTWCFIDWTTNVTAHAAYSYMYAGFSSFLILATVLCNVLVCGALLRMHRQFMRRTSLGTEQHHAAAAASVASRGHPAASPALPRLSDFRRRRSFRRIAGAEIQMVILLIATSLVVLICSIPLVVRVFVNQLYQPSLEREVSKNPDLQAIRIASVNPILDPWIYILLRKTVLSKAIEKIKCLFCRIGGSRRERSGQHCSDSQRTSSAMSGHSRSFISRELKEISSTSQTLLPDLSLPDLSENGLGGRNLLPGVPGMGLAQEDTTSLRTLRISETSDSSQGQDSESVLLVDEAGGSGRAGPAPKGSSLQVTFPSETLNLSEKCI
In a further series the target is EP2 (Homo sapiens, UniProt P43116). Put plainly: EP2 functional agonist assay, Cerep (cAMP, HTRF).
EP2, sequence (P43116 whole entry): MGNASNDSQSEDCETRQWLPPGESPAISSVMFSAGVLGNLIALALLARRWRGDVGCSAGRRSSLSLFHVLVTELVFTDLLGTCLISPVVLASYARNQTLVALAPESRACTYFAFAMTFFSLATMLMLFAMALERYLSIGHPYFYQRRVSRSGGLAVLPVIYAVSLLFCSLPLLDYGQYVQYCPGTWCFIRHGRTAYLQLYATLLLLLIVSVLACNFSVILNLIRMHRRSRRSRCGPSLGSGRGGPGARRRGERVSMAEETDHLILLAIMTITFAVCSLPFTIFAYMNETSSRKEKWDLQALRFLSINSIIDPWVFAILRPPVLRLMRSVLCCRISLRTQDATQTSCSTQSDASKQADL
Series [2] can be described thus: Dynamic light scattering (colloidal aggregation). Format: physicochemical. The settings on record: 25 °C.
The target in series [3] is T3, EP3. The series can be described thus: EP3 functional agonist assay, Cerep (impedance).
Another series has as its target T4, TRPM8 (Homo sapiens, UniProt Q7Z2W7).
T4 construct: Cerep, SA (fee-for-service assay) printed G018533 (citation number 33 glued on)
Put plainly: TRPM8 functional agonist assay, Cerep (intracellular Ca2+). The class given is cell-based.

In a further series the target is T5, EP1 (Homo sapiens, UniProt P34995).
T5 sequence (P34995 1-402): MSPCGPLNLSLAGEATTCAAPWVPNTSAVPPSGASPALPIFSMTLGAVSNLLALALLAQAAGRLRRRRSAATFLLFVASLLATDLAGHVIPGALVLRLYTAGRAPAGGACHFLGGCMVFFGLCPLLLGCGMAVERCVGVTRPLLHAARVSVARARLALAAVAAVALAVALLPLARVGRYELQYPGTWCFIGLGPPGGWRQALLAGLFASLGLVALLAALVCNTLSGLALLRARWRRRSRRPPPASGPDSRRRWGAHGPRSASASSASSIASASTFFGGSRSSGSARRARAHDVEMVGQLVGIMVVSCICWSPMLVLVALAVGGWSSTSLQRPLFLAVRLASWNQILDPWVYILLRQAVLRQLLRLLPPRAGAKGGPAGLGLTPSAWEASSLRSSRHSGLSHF
Put plainly: EP1 functional agonist assay, Cerep (intracellular Ca2+).

The target in the next series is SIK (Homo sapiens, UniProt P57059). Put plainly: ExpresS Diversity Kinase Profile, Cerep (LANCE): SIK. The class given is biochemical. The note with it: control.
SIK, sequence (P57059 whole entry): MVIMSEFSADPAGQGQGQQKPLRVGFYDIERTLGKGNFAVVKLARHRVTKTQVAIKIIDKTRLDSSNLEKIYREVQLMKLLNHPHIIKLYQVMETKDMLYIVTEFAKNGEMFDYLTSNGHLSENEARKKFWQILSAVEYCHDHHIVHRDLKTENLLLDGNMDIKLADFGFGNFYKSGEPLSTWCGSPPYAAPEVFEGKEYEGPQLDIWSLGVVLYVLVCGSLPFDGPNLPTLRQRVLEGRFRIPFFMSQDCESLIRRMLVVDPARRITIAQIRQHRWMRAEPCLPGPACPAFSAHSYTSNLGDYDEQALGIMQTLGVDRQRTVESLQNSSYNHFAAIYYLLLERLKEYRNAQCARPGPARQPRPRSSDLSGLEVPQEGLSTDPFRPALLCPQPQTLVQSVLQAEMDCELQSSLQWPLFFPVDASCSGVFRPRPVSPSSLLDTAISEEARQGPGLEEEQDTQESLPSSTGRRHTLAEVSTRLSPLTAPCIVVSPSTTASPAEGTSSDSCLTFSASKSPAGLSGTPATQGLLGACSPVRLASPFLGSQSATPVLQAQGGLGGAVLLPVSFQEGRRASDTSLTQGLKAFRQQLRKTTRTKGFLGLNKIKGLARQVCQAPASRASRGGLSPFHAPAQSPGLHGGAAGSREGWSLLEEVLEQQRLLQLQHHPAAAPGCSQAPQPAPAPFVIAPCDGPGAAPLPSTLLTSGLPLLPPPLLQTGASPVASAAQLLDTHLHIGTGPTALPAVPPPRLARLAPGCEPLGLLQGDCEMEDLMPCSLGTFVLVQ
For a further series, the target named is p38α (Homo sapiens, UniProt Q16539). The series can be described thus: ExpresS Diversity Kinase Profile, Cerep (LANCE): p38α. The settings on record: control. Format: biochemical.
p38α, sequence (Q16539 whole entry): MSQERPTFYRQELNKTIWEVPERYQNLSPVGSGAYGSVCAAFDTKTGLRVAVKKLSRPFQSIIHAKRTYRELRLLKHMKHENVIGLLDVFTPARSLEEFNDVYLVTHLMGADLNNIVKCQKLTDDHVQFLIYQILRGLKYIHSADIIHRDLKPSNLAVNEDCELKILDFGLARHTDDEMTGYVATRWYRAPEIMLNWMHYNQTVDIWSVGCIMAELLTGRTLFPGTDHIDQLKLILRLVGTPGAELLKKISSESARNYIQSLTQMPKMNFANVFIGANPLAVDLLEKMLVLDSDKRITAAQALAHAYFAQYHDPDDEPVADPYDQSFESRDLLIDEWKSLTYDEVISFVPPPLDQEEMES
[4] abbreviates: n = 2, read-out: % inhibition of control values, Mean.
Where [5] appears, read: read-out: % inhibition of control values, 1st measure.
[6] abbreviates: read-out: % inhibition of control values, 2nd measure.
[7] abbreviates: read-out: % of control values, 1st measurement.
Setting [8] is: read-out: % of control values, 2nd measurement.
Setting [9] is: read-out: % of control values, Mean.

Like-named read-outs stand apart in the source and are kept apart here.

T4 sequence (Q7Z2W7 whole entry): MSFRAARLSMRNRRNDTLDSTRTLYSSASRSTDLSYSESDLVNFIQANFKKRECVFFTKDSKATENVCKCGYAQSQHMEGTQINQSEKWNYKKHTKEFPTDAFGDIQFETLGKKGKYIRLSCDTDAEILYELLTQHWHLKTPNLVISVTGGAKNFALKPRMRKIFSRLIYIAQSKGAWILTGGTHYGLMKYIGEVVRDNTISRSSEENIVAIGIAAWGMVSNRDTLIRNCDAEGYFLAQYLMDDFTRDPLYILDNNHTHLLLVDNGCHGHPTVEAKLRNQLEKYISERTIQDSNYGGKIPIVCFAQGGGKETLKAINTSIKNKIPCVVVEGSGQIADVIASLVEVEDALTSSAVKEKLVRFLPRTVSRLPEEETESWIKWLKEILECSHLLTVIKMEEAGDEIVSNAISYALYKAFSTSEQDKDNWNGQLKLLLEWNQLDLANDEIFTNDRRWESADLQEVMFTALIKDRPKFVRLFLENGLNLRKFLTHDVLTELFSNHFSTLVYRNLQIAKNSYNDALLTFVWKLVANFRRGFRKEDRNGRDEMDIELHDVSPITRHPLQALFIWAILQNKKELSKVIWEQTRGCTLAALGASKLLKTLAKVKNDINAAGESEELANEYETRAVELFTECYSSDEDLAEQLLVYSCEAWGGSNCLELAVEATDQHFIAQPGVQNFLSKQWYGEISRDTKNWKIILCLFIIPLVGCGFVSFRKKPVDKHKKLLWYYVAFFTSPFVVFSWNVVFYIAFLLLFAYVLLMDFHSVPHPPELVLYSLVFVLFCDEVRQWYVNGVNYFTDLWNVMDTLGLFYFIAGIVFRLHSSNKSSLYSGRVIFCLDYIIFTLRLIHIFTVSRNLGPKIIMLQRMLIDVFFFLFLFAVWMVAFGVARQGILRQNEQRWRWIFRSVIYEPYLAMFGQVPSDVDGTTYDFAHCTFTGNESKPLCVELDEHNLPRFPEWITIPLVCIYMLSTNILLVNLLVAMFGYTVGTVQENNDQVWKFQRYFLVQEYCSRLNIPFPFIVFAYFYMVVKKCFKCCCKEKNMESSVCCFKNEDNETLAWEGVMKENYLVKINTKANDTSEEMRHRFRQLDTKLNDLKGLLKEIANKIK

With `N#C/C(=C\c1ccc(O)c(O)c1)C(=O)OCCc1cccs1` [Compound 2-TEDC, reference compound], the nHill at 15-LO-2 came to 0.7.
One may read the inhibition as the relative decrease from the control value, in per cent. Consider `CC1(C)OC2=C(C(=O)C(=O)c3ccccc32)C1Nc1ccccc1` (stereo not drawn) [Compound 2], for which the inhibition at 5 µM on 5-LO (setting [4]) was found to be 32.2%; at 5-LO (setting [5]) it was 42.2%; at 5-LO (setting [6]) it was 22.2%.
For `CC1(C)OC2=C(C(=O)C(=O)c3ccccc32)C1Nc1ccc(Cl)cc1` (stereo not drawn) [Compound 3] the same measures were 31.1%, 33.1% and 29%.
As for `CC1(C)OC2=C(C(=O)C(=O)c3ccccc32)C1O` (stereo not drawn) [Compound 4], the inhibition at 5 µM at 5-LO (setting [4]) worked out at 72.8%; at 5-LO (setting [5]), 77.4%; on 5-LO (setting [6]) it was 68.2%.
For `CC1(C)OC2=C(CC1O)C(=O)C(=O)c1ccccc12` (stereo not drawn) [Compound 5] the same measures were 41.1%, 47.2% and 35.5%.
For `CC1(C)OC2=C(C(=O)C(=O)c3ccccc32)C1Nc1ccc(C(=O)/C=C/c2ccccc2)cc1` (stereo not drawn) [Compound 6] the same measures were 54.8%, 51.5% and 58.1%.
In the same order, the values of `CC(=O)OCC1OC(OCc2cn(CC3C4=C(OC3(C)C)c3ccccc3C(=O)C4=O)nn2)C(OC(C)=O)C(OC(C)=O)C1OC(C)=O` (stereo not drawn) [Compound 7] are 75.4%, 73.8% and 76.9%.
On to `CC(=O)OCC1OC(OCc2cn(C3C4=C(OC3(C)C)c3ccccc3C(=O)C4=O)nn2)C(OC(C)=O)C(OC(C)=O)C1OC(C)=O` (stereo not drawn) [Compound 8], for which the inhibition at 5 µM was determined as 66.6% at 5-LO (setting [4]), 68.4% on 5-LO (setting [5]) and 64.8% at 5-LO (setting [6]).
By IC50 is commonly meant the concentration at which inhibition is half-maximal. A high value points to a need for much substance. On EP3 [1], `COc1ccc(Br)cc1S(=O)(=O)NC(=O)/C=C/c1ccccc1Cc1ccc2ccccc2c1` [Compound L798106, reference compound] gave an IC50 of 370 nM.
Take `OCCN(CCO)c1nc(N2CCCCC2)c2nc(N(CCO)CCO)nc(N3CCCCC3)c2n1` [Dipyridamole, reference compound]: the nHill on PDE5 stood at 1.3.
In the case of `CC(C)=CCC1=C(O)C(=O)c2ccccc2C1=O` [Lapachol, lapachol, reference compound], the inhibition at 150 µM was 87.1% on 5-LO (setting [4]), 84.9% on 5-LO (setting [5]) and 89.3% on 5-LO (setting [6]). The remaining activity at 150 µM at TRPV1 (setting [7]) was -13.1%; at TRPV1 (setting [8]), -13.1%; at TRPV1 (setting [9]) it was -13.1%; at EP4 (setting [7]), 8%; on EP4 (setting [8]), 5.8%; at EP4 (setting [9]), 6.9%. The remaining activity at 150 µM at EP2 (setting [7]) is -1.2%; at EP2 (setting [8]), -2.4%; on EP2 (setting [9]), -1.8%; on EP3 [3] (setting [7]), 22.7%; on EP3 [3] (setting [8]) it was 21.7%; at EP3 [3] (setting [9]) it was 22.2%. In addition, the remaining activity at 150 µM at EP1 (setting [7]), on EP1 (setting [8]) and on EP1 (setting [9]) was -11.3% in each case. In addition, the “Count rate (kcps)” value in series [2] (25 µM in H2O + 0.1% DMSO) is listed as 250.6 kcps; in series [2] (50 µM in H2O + 0.1% DMSO), 198.4 kcps; in series [2] (100 µM in H2O + 0.1% DMSO), 882.6 kcps. Also, the agonist response (% of control) at 150 µM at TRPM8 (setting [7]), on TRPM8 (setting [8]) and on TRPM8 (setting [9]) was -20.4% each time.
The molecule `CC(Cc1ccc(O)c(O)c1)C(C)Cc1ccc(O)c(O)c1` (stereo not drawn) [NDGA, reference compound] yielded a nHill on 5-LO (control) of 1.5.
On SIK, `Cn1cc(C2=C(c3cn(CCCSC(=N)N)c4ccccc34)C(=O)NC2=O)c2ccccc21` [Ro-318220, reference compound] registered a nHill of 0.7.
For the molecule `Oc1ccc(-c2nc(-c3ccncc3)c(-c3ccc(F)cc3)[nH]2)cc1` [SB202190, reference compound], the nHill at p38α turned out to be 1.3.
